≈ marks a conversion by molar mass, not a printed value.
Legend:
Format in all cases: cell-based
[1] = system: Enterobacter cloacae species complex Elevated AmpC; assay: Synergistic activity: MIC in the presence of Avibactam
Experimental: (§1) Isolates were sub-cultured onto appropriate media and stocked in skim milk at −80° C. Following two subcultures from frozen stock, in vitro antimicrobial susceptibility testing was performed using the Clinical and Laboratory Standards Institute (CLSI) broth microdilution method. Briefly, fresh cultures were suspended in culture media to give a final stock inoculum size of 5×10^7 colony forming units per milliliter of broth (CFU/mL). Test compounds were prepared at a stock solution concentration equal to 128 μg/mL, then diluted to give a final an initial working concentration of 32 μg/mL. 100 μL of the stock solutions were added to the first wells in a 96-well plate and were then diluted using a 2-fold dilution method to give a range of 32-0.025 μg/mL. 100 μL of the bacterial suspensions were then added to the 96-well plates to give a final working inoculum size of 5×10^5 CFU/mL. The final compound concentration range was 16-0.0125 μg/mL. […] MICs for comparator agents were determined using custom-designed, in-house prepared 96-well broth microdilution panels.
(§2) The same method used to test the activity of the claimed compounds was used to determine their synergistic activity when combined with a β-lactamase inhibitor except that either a fixed concentration or fixed ratio of a β-lactamase inhibitor was added to the 96-well plates prior to adding the bacteria cultures. Synergistic activity was defined as the reduction of MIC of a given compound when tested using the β-lactamase inhibitor versus testing the compound in the absence of a β-lactamase inhibitor.

[2] = system: Escherichia coli CMY-DHA; assay: as above
Experimental: as §1, §2

[3] = system: Citrobacter freundii species complex Elevated AmpC; assay: as above; details: row r16, in the presence of Avibactam @ 4 μg/mL
Experimental: as §1, §2

[4] = system: Escherichia coli Elevated AmpC; assay: as above
Experimental: as §1, §2

[5] = system: Proteus mirabilis CMY-DHA; assay: as above; details: row r36, in the presence of Avibactam @ 4 μg/mL
Experimental: as §1, §2

[6] = system: Klebsiella pneumoniae CMY-DHA; assay: as above; details: row r32, in the presence of Avibactam @ 4 μg/mL
Experimental: as §1, §2

[7] = system: Serratia marcescens AmpC overexpressed; assay: MIC, CLSI broth microdilution
Method in brief: (§3)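 Each strain carries identified resistance markers and was drawn from ATCC or clinical specimens. Susceptibility is tested per CLSI broth microdilution at a final inoculum of 5×10^5 CFU/mL, over a final compound range of 16-0.0125 μg/mL.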

[8] = system: Pseudomonas aeruginosa ATCC 27853; assay: MIC, CLSI broth microdilution; details: ATCC27853
Method in brief: (§4)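 Inhibitory concentrations were measured in broth following CLSI microdilution rules. Test organisms, each with known resistance determinants, were inoculated at a final 5×10^5 CFU/mL into wells holding compound at final concentrations from 16 down to 0.0125 μg/mL.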

[9] = system: Pseudomonas aeruginosa AmpC overexpressed; assay: MIC, CLSI broth microdilution
Method in brief: as §3

[10] = system: Klebsiella pneumoniae OXA-48, SHV-1; assay: MIC, CLSI broth microdilution
Method in brief: as §3

[11] = system: Klebsiella oxytoca KPC-2, TEM-1; assay: MIC, CLSI broth microdilution; details: KPC-2, TEM-1, read-out: MIC
Method in brief: as §4

[12] = system: Escherichia coli CMY-2; assay: MIC, CLSI broth microdilution; details: CMY2
Method in brief: as §4

[13] = system: Escherichia coli ATCC 25922; assay: MIC, CLSI broth microdilution; details: ATCC25922
Method in brief: as §4

[14] = system: Escherichia coli CTX-M-15; assay: MIC, CLSI broth microdilution; details: CTXM15
Method in brief: as §4

[15] = system: Enterobacter cloacae species complex NDM-1; assay: MIC, CLSI broth microdilution
Method in brief: as §4

[16] = system: Acinetobacter baumannii ATCC 19606; assay: MIC, CLSI broth microdilution; details: ATCC19606
Method in brief: as §4

[17] = system: Enterobacter cloacae species complex Elevated AmpC; assay: MIC against Elevated AmpC producing strains, compound alone
Experimental: (§5) Gram-negative and Gram-positive bacterial strains used during the in vitro minimum inhibitory concentration (MIC) determination were obtained either from the American Type Culture Collection (ATCC) or from clinical specimens. All strains were characterized genotypically and the respective antibiotic resistance markers for each strain were identified.
as §1

[18] = system: Citrobacter freundii species complex Elevated AmpC; assay: as above; details: row r16
Experimental: as §5, §1

[19] = system: Escherichia coli Elevated AmpC; assay: as above
Experimental: as §5, §1

[20] = system: Escherichia coli CMY-DHA; assay: MIC against CMY-DHA producing strains, compound alone
Experimental: as §5, §1

[21] = system: Proteus mirabilis CMY-DHA; assay: as above; details: row r36
Experimental: as §5, §1

[22] = system: Klebsiella pneumoniae CMY-DHA; assay: as above; details: row r32
Experimental: as §5, §1

Nc1nc(/C(=N/OC2(C(=O)O)CCC(F)(F)CC2)C(=O)N[C@H]2CON(C3(C(=O)O)C[C@H](N4C(=O)c5cc(O)c(O)cc5C4=O)C(=O)O3)C2=O)cs1 (stereo partly drawn) [Cmpd 10, (4S)-2-[(4S)-4-{[(2Z)-2-(2-amino-1,3-thiazol-4-yl)-2-{[(1-carboxy-4,4-difluorocyclohexyl)oxy]imino}acetyl]amino}-3-oxo-1,2-oxazolidin-2-yl]-4-(5,6-dihydroxy-1,3-dioxo-1,3-dihydro-2H-isoindol-2-yl)-5-oxooxolane-2-carboxylic acid]
MIC ([1]; in the presence of Avibactam @ 4 μg/mL): 0.06 µg/mL | MIC ([1]; strain of row r7, in the presence of Avibactam @ 4 μg/mL): 0.12 µg/mL | MIC ([1]; strain of row r20, in the presence of Avibactam @ 4 μg/mL): <=0.008 μg/mL | MIC ([2]; strain of row r26, in the presence of Avibactam @ 4 μg/mL): 0.06 µg/mL | MIC ([2]; strain of row r27, in the presence of Avibactam @ 4 μg/mL): <=0.008 μg/mL | MIC ([2]; strain of row r28, in the presence of Avibactam @ 4 μg/mL): 0.03 µg/mL | MIC ([2]; strain of row r29, in the presence of Avibactam @ 4 μg/mL): 0.06 µg/mL | MIC ([2]; strain of row r30, in the presence of Avibactam @ 4 μg/mL): <=0.008 μg/mL | MIC ([2]; strain of row r31, in the presence of Avibactam @ 4 μg/mL): 0.06 µg/mL | MIC ([2]; strain of row r34, in the presence of Avibactam @ 4 μg/mL): 0.015 µg/mL | MIC ([2]; strain of row r35, in the presence of Avibactam @ 4 μg/mL): 0.015 µg/mL | MIC [3]: 0.03 µg/mL | MIC ([4]; strain of row r10, in the presence of Avibactam @ 4 μg/mL): <=0.008 μg/mL | MIC ([4]; strain of row r11, in the presence of Avibactam @ 4 μg/mL): 0.03 µg/mL | MIC ([4]; strain of row r12, in the presence of Avibactam @ 4 μg/mL): 0.03 µg/mL | MIC ([4]; strain of row r13, in the presence of Avibactam @ 4 μg/mL): <=0.008 μg/mL | MIC ([4]; strain of row r14, in the presence of Avibactam @ 4 μg/mL): <=0.008 μg/mL | MIC ([4]; strain of row r15, in the presence of Avibactam @ 4 μg/mL): 0.06 µg/mL | MIC [5]: 0.5 µg/mL | MIC [6]: 0.25 µg/mL | MIC [7]: 0.12 µg/mL (≈ 0.162 µM) | MIC [8]: 0.12 µg/mL (≈ 0.162 µM) | MIC [9]: 2 µg/mL (≈ 2.71 µM) | MIC [10]: ≤ 0.015 µg/mL | MIC [11]: ≤ 0.015 µg/mL | MIC [12]: 1 µg/mL (≈ 1.35 µM) | MIC [13]: 0.12 µg/mL (≈ 0.162 µM) | MIC [14]: 1 µg/mL (≈ 1.35 µM) | MIC [15]: 2 µg/mL (≈ 2.71 µM) | MIC [16]: 0.12 µg/mL (≈ 0.162 µM) | MIC [17]: 0.5 µg/mL (≈ 0.677 µM) | MIC ([17]; strain of row r7): 4 µg/mL (≈ 5.42 µM) | MIC ([17]; strain of row r20): 0.12 µg/mL (≈ 0.162 µM) | MIC [18]: 0.25 µg/mL (≈ 0.338 µM) | MIC ([19]; strain of row r10): 0.015 µg/mL (≈ 0.0203 µM) | MIC ([19]; strain of row r11): 0.12 µg/mL (≈ 0.162 µM) | MIC ([19]; strain of row r12): 0.12 µg/mL (≈ 0.162 µM) | MIC ([19]; strain of row r13): 0.03 µg/mL (≈ 0.0406 µM) | MIC ([19]; strain of row r14): 0.03 µg/mL (≈ 0.0406 µM) | MIC ([19]; strain of row r15): 0.25 µg/mL (≈ 0.338 µM) | MIC ([20]; strain of row r26): 0.5 µg/mL (≈ 0.677 µM) | MIC ([20]; strain of row r27): 0.03 µg/mL (≈ 0.0406 µM) | MIC ([20]; strain of row r28): 0.25 µg/mL (≈ 0.338 µM) | MIC ([20]; strain of row r29): 0.5 µg/mL (≈ 0.677 µM) | MIC ([20]; strain of row r30): 0.25 µg/mL (≈ 0.338 µM) | MIC ([20]; strain of row r31): 1 µg/mL (≈ 1.35 µM) | MIC ([20]; strain of row r34): 0.06 µg/mL (≈ 0.0812 µM) | MIC ([20]; strain of row r35): 0.12 µg/mL (≈ 0.162 µM) | MIC [21]: 0.12 µg/mL (≈ 0.162 µM) | MIC [22]: 0.5 µg/mL (≈ 0.677 µM)
